Patent US8129527B2, “Analogs of dehydrophenylahistins and their therapeutic use” (Nereus Pharmacuticals, Inc., priority 2006, dated 2012)

How the values were obtained:
HT-29 cells = assay: Additional cytotoxicity assays, resazurin (Table 3.1); assay type: cell-based, human; settings: Table 3.1
Summary of the method: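 Cells exposed 48 hours to compounds at final concentrations 2.0×10^−5 M to 2.0×10^−10 M, in triplicate. Viability then read as resazurin fluorescence after 3-4 hours with dye; cell-free dye background subtracted.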

HuVECs = assay: Cell growth inhibition assay, resazurin (Example 11); assay type: cell-based, human; settings: for EC50: Homo sapiens, HuVEC, 48 hours, mean values of two independent experiments; for cytotoxicity against HuVECs: in words
Description: The growth inhibitory activity of NPI-2421 and NPI-2463 were determined against human umbilical […] endothelial cells, HuVECs.
HuVECs (Cambrex Biosciences; CC2519A) were maintained in EGM-2 medium at 37° C. in 5% CO2 and 95% humidified air.
For cell growth inhibition assays, HuVECs were seeded at 1×10^3 cells/well in 90 μl complete media into a Corning 3904 black-walled, clear-bottom tissue culture plates and the plates were incubated overnight to allow cells to establish and enter log phase growth. 20 mM stock solutions of compounds were prepared in 100% DMSO and stored at −80° C. […] Ten μl volumes of the 10× serial dilutions were added to the test wells in triplicate and the plates returned to the incubator for 48 hours. The final concentration of DMSO was 0.25% in all samples.
(§1) Following 48 hours of drug exposure, 10 μl of 0.2 mg/ml resazurin (obtained from Sigma-Aldrich Chemical Co.) in Mg^2+, Ca^2+ free phosphate buffered saline was added to each well and the plates were returned to the incubator for 3-6 hours. […] Resazurin dye in medium without cells was used to determine the background, which was subtracted from the data for all experimental wells.

[1] = tested on: MES-SA human uterine sarcoma; assay: as above; assay type: cell-based; settings: mean ± standard deviation of three independent experiments
[2] = tested on: HL-60 human acute promyelocytic leukemia cells; assay: as above; assay type: cell-based; settings: mean values of two independent experiments
Description: Human uterine sarcoma (MES-SA; CRL-1976), its multidrug resistant derivative (MES-SA/Dx5; CRL-1977), human acute promyelocytic leukemia cells (HL-60; CCL-240) and its multidrug resistant derivative (HL-60/MX2; CRL-2257) were purchased from ATCC and maintained in appropriate culture media. The cells were cultured in an incubator at 37° C. in 5% CO2 and 95% humidified air.
For cell growth inhibition assays, MES-SA and MES-SA/Dx5 cells were both seeded at 3×10^3 cells/well in 90 μl complete media into 96 well (Corning; 3904) black-walled, clear-bottom tissue culture plates and the plates were incubated overnight to allow cells to establish and enter log phase growth. HL-60 and HL-60/MX2 cells were both seeded at 5×10^4 cells/well in 90 μl complete media into 96 well plates on the day of compound addition. 20 mM stock solutions of the compounds were prepared in 100% DMSO and stored at −80° C. […] Ten μl volumes of the 10× serial dilutions were added to the test wells in triplicate and the plates returned to the incubator for 48 hours. The final concentration of DMSO was 0.25% in all samples.
as §1
HL-60/MX2 is a multidrug resistant tumor cell line derived from the human promyelocytic leukemia cell line, HL-60 and expresses reduced topoisomerase II activity. The data presented in Table 20 summarize the growth inhibitory effects of NPI-2421, NPI-2463, NPI-2503, NPI-2504 and NPI-2506 against HL-60 and its multidrug resistant derivative HL-60/MX2. Mitoxantrone, the topoisomerase II targeting agent was included as a control.

[3] = tested on: HL-60/MX2 multidrug resistant; assay: as above; assay type: cell-based, human; settings: for EC50: Homo sapiens, HL60/MX2, HL-60/MX2, mean values of two independent experiments; for cytotoxic activity against both HL-60 and HL-60/MX2: in words; for Fold change: ratio of EC50 values (HL-60/MX2:HL-60)
[4] = tested on: MES-SA/Dx5 multidrug resistant; assay: as above; assay type: cell-based, human; settings: for EC50: Homo sapiens, MES-SA/Dx5, mean ± standard deviation of three independent experiments; for cytotoxic activity against both MES-SA and MES-SA/Dx5: in words; for Fold change: ratio of EC50 values (MES-SA/Dx5:MES-SA)
B16-F10 melanoma = assay: as above; assay type: cell-based; settings: Mus musculus, 48 hours, mean ± SD where n ≧ 3
Description: (§2) The growth inhibitory activity of NPI-2421, NPI-2463, NPI-2503 and NPI-2504 were determined against selected human (colorectal adenocarcinoma, HT-29; breast adenocarcinoma, MDA-MB-231; non-small cell lung carcinoma, NCI-H292 and prostate carcinomas, PC-3 and DU 145) and mouse (melanoma, B16-F10) tumor cell lines.
(§3) HT-29 (HTB-38), MDA-MB-231 (HTB-26), NCI-H292 (CRL-1848), B16-F10 (CRL-6475), PC-3 (CRL-1435) and DU 145 (HTB-81) cells were all purchased from the ATCC. The cell lines were maintained in their respective ATCC recommended culture media and cultured in an incubator at 37° C. in 5% CO2 and 95% humidified air.
(§4) 20 mM stock solutions of compounds were prepared in 100% DMSO and stored at −80° C. 10× concentrated serial dilutions of the compounds were prepared in B16-F10 cell culture medium for final concentrations ranging from 20 μM to […]. Ten μl volumes of the 10× serial dilutions were added to the test wells in triplicate and the plates returned to the incubator for 48 hours. The final concentration of DMSO was 0.25% in all samples.
as §1

[5] = tested on: DU 145 prostate carcinoma; assay: as above; assay type: cell-based; settings: Homo sapiens, 48 hours
Description: as §2, §3, §4, §1

[6] = tested on: NCI-H292 non-small cell lung carcinoma; assay: as above; assay type: cell-based; settings: Homo sapiens, 48 hours, mean ± SD where n ≧ 3, ** n = 1
Description: as §2, §3, §4, §1

[7] = tested on: HT-29 colorectal adenocarcinoma; assay: as above; assay type: cell-based; settings: Homo sapiens, 48 hours, mean ± SD where n ≧ 3
Description: as §2, §3, §4, §1

[8] = tested on: MDA-MB-231 breast adenocarcinoma; assay: as above; assay type: cell-based; settings: Homo sapiens, 48 hours, mean ± SD where n ≧ 3
Description: as §2, §3, §4, §1

PC-3 prostate carcinoma = assay: as above; assay type: cell-based; settings: Homo sapiens, 48 hours, mean ± SD where n ≧ 3, ** n = 1
Description: as §2, §3, §4, §1

[9] = tested on: HT-29 human colorectal carcinoma cells; assay: Cell growth inhibition assay, resazurin (Table 3.2); assay type: cell-based; settings: Table 3.2, HT-29 cells, read-out: EC50 (M) Mean
Summary of the method: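 HT-29 cells seeded at 5×10^3/well overnight, then exposed in triplicate to compounds at final 20 μM to […] (0.25% DMSO) for 48 h at 37° C. Viability read by resazurin reduction after 3-4 h further incubation, with cell-free dye background subtracted.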

Structure (SMILES) | EC50 (HT-29 cells; Homo sapiens, HT-29, read-out: EC50 (M) Mean) [M] | % cytotox Mean (HT-29 cells) [%] | EC50 (HuVECs) [nM] | cytotoxicity against HuVECs (HuVECs) | EC50 [1] [nM] | EC50 [2] [nM] | EC50 [3] [nM] | cytotoxic activity against both HL-60 and HL-60/MX2 [3] | Fold change [3] | EC50 [4] [nM] | cytotoxic activity against both MES-SA and MES-SA/Dx5 [4] | Fold change [4] | EC50 (B16-F10 melanoma) [nM] | EC50 [5] [nM] | EC50 [6] [nM] | EC50 [7] [nM] | EC50 [8] [nM] | EC50 (PC-3 prostate carcinoma) [nM] | EC50 [9] [M]
CC(C)(C)c1ocnc1/C=c1\[nH]c(=O)/c(=C/c2ccccc2)[nH]c1=O [Compound 2421, tBu-delta-PLH-oxazole] | 2.22e-08 | 88 | 12 | cytotoxic against HuVECs | 12 ± 3 | 23 | 14 | retained cytotoxic activity | 0.6 | 17 ± 4 | retained equivalent cytotoxic activity | 1.4 | 19 | 25 | 41 | 21 ± 9 | 20 ± 6 | > 2000 | –
CC(C)(C)c1ocnc1/C=c1\[nH]c(=O)/c(=C/c2cccc(F)c2)[nH]c1=O [Compound 2463, tBu-Oxadelta-PLH-m-F] | – | – | 10 | cytotoxic against HuVECs | 12 ± 4 | 26 | 14 | retained cytotoxic activity | 0.5 | 14 ± 3 | retained equivalent cytotoxic activity | 1.2 | 14 ± 5 | 32 | 24 ± 11 | 16 ± 3 | 25 ± 9 | 13 ± 5 | 1.71e-08
